# Columns and labels:
# Conditions in all cases: at 1 µM
# [1] = target: Tyrosine-protein kinase Blk (Homo sapiens) (UniProt P51451); assay: Selectivity interaction (SelectScreen kinase panel (Invitrogen)) EUB0000133b BLK
# [2] = target: Calcium/calmodulin-dependent protein kinase type II subunit alpha (Homo sapiens, UniProt Q9UQM7); assay: Selectivity interaction (SelectScreen kinase panel (Invitrogen)) EUB0000133b CAMK2A
# [3] = target: Ephrin type-A receptor 2 (Homo sapiens) (UniProt P29317); assay: Selectivity interaction (SelectScreen kinase panel (Invitrogen)) EUB0000133b EPHA2
# [4] = target: Ephrin type-A receptor 4 (Homo sapiens, UniProt P54764); assay: Selectivity interaction (SelectScreen kinase panel (Invitrogen)) EUB0000133b EPHA4
# [5] = target: Fibroblast growth factor receptor 2 (Homo sapiens) (UniProt P21802); assay: Selectivity interaction (SelectScreen kinase panel (Invitrogen)) EUB0000133b FGFR2
# [6] = target: Tyrosine-protein kinase Fgr (Homo sapiens) (UniProt P09769); assay: Selectivity interaction (SelectScreen kinase panel (Invitrogen)) EUB0000133b FGR
# [7] = target: MAP kinase-activated protein kinase 3 (Homo sapiens) (UniProt Q16644); assay: Selectivity interaction (SelectScreen kinase panel (Invitrogen)) EUB0000133b MAPKAPK3
# [8] = target: NT-3 growth factor receptor (Homo sapiens, UniProt Q16288); assay: Selectivity interaction (SelectScreen kinase panel (Invitrogen)) EUB0000133b NTRK3
# [9] = target: Vascular endothelial growth factor receptor 1 (Homo sapiens) (UniProt P17948)
# [10] = target: Vascular endothelial growth factor receptor 3 (Homo sapiens, UniProt P35916)
# [11] = target: Vascular endothelial growth factor receptor 2 (Homo sapiens, UniProt P35968)
# [12] = target: Mitogen-activated protein kinase kinase kinase kinase 4 (Homo sapiens, UniProt O95819)
# [13] = target: Misshapen-like kinase 1 (Homo sapiens, UniProt Q8N4C8)
# [14] = system: Platelet-derived growth factor receptor alpha (Homo sapiens), P16234 [V561D]
# [15] = target: Platelet-derived growth factor receptor alpha (Homo sapiens, UniProt P16234)
# [16] = target: Receptor-interacting serine/threonine-protein kinase 2 (Homo sapiens, UniProt O43353)
# [17] = target: RAF proto-oncogene serine/threonine-protein kinase (Homo sapiens) (UniProt P04049)
# RAF proto-oncogene serine/threonine-protein kinase (Homo sapiens), sequence (P04049 whole entry): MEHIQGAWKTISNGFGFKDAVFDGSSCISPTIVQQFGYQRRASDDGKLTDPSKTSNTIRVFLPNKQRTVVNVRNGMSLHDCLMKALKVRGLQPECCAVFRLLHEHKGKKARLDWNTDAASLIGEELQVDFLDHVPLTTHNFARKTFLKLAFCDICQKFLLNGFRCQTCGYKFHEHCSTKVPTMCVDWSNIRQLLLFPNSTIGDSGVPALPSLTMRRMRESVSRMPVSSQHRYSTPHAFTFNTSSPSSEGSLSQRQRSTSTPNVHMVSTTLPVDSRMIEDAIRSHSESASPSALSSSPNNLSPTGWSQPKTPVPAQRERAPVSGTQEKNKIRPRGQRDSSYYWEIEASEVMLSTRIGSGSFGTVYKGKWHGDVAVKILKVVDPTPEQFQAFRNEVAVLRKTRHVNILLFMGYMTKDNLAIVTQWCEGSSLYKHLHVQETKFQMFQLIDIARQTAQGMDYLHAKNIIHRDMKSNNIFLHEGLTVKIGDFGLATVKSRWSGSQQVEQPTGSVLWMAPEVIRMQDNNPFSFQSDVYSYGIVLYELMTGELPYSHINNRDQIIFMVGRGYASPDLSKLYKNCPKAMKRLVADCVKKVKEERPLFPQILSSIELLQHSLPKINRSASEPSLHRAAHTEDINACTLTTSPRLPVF
# Calcium/calmodulin-dependent protein kinase type II subunit alpha, sequence (Q9UQM7 whole entry): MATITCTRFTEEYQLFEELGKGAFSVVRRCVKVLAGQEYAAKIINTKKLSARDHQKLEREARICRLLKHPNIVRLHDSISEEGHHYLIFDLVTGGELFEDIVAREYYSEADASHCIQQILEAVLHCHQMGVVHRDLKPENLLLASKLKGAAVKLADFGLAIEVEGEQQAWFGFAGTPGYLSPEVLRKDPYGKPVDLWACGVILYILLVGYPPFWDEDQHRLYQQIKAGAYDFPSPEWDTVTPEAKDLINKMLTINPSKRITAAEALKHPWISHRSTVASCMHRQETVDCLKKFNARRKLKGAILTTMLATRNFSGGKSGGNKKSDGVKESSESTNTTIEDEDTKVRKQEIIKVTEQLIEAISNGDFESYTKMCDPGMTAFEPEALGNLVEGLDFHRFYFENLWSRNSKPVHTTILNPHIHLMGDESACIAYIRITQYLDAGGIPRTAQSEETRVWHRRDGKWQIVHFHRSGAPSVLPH
# MAP kinase-activated protein kinase 3 (Homo sapiens), sequence (Q16644 whole entry, looked up): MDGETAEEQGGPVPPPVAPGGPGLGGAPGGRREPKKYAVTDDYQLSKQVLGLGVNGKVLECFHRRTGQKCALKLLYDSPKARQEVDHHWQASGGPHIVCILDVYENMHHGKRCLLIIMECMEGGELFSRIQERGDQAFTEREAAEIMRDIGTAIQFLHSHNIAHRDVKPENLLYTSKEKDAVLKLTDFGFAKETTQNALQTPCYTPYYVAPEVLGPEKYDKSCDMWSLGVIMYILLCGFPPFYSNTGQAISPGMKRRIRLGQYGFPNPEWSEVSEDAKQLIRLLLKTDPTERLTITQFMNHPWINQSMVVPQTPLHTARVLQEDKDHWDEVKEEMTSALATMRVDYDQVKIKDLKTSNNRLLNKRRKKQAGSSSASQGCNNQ
# Tyrosine-protein kinase Fgr (Homo sapiens), sequence (P09769 2-529 limits assumed): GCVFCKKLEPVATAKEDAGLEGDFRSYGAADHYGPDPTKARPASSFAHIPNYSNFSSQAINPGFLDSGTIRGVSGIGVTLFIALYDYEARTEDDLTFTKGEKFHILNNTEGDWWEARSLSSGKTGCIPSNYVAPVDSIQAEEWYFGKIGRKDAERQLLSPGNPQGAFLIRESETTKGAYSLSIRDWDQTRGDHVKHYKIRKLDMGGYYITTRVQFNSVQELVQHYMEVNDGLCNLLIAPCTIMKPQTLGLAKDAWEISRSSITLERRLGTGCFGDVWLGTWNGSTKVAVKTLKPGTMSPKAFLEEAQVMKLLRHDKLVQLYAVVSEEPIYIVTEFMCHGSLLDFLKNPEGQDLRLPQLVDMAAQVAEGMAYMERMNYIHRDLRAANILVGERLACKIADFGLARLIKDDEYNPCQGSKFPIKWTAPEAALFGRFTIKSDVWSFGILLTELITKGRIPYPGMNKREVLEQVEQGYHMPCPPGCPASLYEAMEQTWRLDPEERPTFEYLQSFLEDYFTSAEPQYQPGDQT
# Vascular endothelial growth factor receptor 3, sequence (P35916 whole entry): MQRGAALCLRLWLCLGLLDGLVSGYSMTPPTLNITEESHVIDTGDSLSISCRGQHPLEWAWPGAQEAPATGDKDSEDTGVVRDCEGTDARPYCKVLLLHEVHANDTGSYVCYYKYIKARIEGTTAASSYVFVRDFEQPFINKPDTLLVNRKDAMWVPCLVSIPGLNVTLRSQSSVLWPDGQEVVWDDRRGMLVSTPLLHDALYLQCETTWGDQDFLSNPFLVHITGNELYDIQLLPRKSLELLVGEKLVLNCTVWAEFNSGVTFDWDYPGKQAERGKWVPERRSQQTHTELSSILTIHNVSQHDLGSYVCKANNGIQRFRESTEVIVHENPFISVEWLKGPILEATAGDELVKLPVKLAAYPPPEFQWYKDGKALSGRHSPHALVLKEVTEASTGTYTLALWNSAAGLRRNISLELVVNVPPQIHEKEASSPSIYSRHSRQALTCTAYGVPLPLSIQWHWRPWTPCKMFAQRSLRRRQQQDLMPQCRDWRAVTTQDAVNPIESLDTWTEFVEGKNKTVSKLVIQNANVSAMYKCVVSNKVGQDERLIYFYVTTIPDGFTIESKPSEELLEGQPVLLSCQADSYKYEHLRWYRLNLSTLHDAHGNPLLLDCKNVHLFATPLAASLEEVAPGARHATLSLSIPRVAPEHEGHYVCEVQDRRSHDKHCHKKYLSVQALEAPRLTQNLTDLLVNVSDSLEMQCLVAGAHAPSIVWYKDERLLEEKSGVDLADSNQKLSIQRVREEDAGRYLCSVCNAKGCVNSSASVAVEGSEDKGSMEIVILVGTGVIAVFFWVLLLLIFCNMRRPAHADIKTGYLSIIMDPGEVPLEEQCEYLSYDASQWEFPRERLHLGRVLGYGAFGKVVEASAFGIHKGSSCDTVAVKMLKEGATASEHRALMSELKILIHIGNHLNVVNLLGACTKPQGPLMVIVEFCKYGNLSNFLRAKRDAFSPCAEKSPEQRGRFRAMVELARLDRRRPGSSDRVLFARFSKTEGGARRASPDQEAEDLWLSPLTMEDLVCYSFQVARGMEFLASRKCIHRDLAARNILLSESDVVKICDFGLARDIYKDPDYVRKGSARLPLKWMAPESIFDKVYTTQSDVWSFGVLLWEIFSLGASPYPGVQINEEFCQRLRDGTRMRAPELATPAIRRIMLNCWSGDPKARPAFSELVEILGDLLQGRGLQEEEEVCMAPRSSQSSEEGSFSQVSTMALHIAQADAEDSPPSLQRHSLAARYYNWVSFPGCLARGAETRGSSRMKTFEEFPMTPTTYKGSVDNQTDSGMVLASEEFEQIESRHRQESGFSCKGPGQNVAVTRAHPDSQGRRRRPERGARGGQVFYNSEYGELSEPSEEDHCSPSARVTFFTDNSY
# Platelet-derived growth factor receptor alpha (Homo sapiens), P16234 [V561D], sequence (P16234 whole entry V561D): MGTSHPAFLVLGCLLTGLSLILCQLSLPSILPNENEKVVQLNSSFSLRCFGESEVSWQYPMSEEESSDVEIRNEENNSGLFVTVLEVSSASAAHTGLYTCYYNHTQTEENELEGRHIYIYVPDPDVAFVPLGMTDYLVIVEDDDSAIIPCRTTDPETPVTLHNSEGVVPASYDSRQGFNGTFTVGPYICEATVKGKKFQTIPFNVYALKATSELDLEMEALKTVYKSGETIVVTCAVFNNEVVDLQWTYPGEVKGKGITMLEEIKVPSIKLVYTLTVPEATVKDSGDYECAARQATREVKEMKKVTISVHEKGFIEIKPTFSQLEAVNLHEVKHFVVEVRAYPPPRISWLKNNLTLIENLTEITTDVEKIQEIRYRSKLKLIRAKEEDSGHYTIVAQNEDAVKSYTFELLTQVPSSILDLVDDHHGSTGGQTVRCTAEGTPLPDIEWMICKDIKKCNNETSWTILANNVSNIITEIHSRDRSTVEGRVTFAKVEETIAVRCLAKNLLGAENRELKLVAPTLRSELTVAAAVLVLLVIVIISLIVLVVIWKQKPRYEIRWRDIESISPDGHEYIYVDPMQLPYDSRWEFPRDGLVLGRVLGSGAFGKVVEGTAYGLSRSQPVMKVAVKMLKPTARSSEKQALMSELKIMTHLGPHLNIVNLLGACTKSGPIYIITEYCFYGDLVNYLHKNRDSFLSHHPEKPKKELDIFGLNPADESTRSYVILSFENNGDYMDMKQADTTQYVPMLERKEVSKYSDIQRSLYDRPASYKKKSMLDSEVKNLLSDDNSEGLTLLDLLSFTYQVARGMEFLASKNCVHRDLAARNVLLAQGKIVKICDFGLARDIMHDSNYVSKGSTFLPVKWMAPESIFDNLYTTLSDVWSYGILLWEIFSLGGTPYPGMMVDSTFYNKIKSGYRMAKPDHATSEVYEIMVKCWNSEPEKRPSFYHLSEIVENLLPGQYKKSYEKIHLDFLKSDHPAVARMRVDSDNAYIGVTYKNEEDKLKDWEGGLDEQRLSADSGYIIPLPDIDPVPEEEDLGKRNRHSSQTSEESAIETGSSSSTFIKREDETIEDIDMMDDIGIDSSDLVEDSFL
# Receptor-interacting serine/threonine-protein kinase 2, sequence (O43353 whole entry): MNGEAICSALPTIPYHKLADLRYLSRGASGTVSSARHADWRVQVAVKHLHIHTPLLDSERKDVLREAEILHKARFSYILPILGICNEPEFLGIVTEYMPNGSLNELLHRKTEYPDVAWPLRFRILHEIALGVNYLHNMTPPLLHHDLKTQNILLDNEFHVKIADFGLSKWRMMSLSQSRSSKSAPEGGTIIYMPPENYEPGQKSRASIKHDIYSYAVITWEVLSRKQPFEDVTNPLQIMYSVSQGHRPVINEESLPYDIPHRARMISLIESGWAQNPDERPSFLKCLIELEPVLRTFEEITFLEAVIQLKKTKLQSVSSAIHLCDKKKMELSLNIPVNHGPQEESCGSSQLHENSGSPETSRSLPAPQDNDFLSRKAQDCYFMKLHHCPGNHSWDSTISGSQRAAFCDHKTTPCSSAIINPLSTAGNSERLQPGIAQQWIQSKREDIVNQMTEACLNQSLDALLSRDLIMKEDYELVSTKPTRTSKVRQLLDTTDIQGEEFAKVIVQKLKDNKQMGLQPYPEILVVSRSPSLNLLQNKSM
# Platelet-derived growth factor receptor alpha, sequence (P16234 whole entry): as the sequence (P16234 whole entry V561D) above, with D561V counted along it
compound,measurement,setting,value
COc1cc(Nc2ncc3c(n2)-c2ccc(Cl)cc2C(c2c(F)cccc2OC)=NC3)ccc1C(=O)O,% of inhibition,[1],92%
same,% of inhibition,[2],95%
same,% of inhibition,[3],100%
same,% of inhibition,[4],94%
same,% of inhibition,[5],90%
same,% of inhibition,[6],97%
same,% of inhibition,[7],91%
same,% of inhibition,[8],91%
Cc1cccc(-c2[nH]c(CNc3ccccc3F)nc2-c2ccc3ncnn3c2)n1,% of residual activity,[9],38%
same,% of residual activity,[10],28%
same,% of residual activity,[11],11%
same,% of residual activity,[12],41%
same,% of residual activity,[13],21%
same,% of residual activity,[14],43%
same,% of residual activity,[15],47%
same,% of residual activity,[16],7%
OCCn1cc(-c2ccc3c(c2)CCC3=NO)c(-c2ccncc2)n1,% of control,[17],8%

# — ChEMBL document CHEMBL5465560, “Selectivity Literature for EUbOPEN Chemogenomic Library” (2024)
